Laboratory results as given in patent publication US20220017941A1, “ELECTROANALYTICAL DETERMINATION OF LEUKOCYTE ESTERASE” (Board of Regents, the University of Texas System, priority 2020, published 2022).

Columns and labels:
leukocyte esterase (LE) = test: Internally calibrated electrochemical continuous enzyme assay (ICECEA) of LE with ester substrate coupled to alcohol oxidase; format: biochemical, human; settings: pH 7.40 PBS
Experimental: The original suspension of human leukocytes was diluted 10 times with a pH 7.40 0.050 M phosphate buffer saline (PBS, 154 mM NaCl) solution that contained 10 vol. % DMSO and left for 10 min to lyse the leukocytes chemically. The suspension was then sonicated for 30 s (Q125 Qsonica, 20% power) to complete the lysing process. The sonication was done in 5 s intervals with 5 s rest cycles to minimize the enzyme deactivation due to solution overheating. The lysate was centrifuged at 10000×g for 5 min, and the supernatant was transferred to a 1.70-mL microcentrifuge tube (Corning, N.Y.) and stored in a freezer at −20° C. when not in use.
Assays. The assays of LE were conducted at a N-CNT electrode by following the protocol of internally calibrated electrochemical continuous enzyme assay (ICECEA) (Zhang et. al., M.; Anal. Chem. 2013, 85, 6026-6032; Bekhit et. al., Anal. Chem. 2019, 91, 3163-3169).
(§1) The assay solution (5.00 mL) was made of pH 7.40 PBS containing both methyl pyruvate (MP) and alcohol oxidase (AOx). The current flowing through a N-CNT electrode at −0.20 V was measured continuously while a stirred assay solution was sequentially spiked with three 50-μL calibrating aliquots of H2O2 and one 50-μL aliquot of LE. This produced an ICECEA amperogram with the three current steps providing a calibration slope CS and an ascending linear current segment having an assay slope AS. The ICECEA amperograms shown were shortened to display only the linear portion of ascending current segment.
The AS and CS slopes were used to calculate the unit U of the enzymatic activity of LE:
By definition, one unit (U) of activity was equal to the amount of LE that consumed 1.0 micromole of MP per 1.0 min in a pH 7.40 PBS solution at room temperature (21° C.).
Kinetic Testing. The hypothesis formulated above was tested first by determining the kinetics of reaction 1. To ensure that the reaction was rate-limiting, the excess of AOx (25 mU) over LE (3 mU) was used. In addition, the concentration of H2O2 was kept within a linear range of calibration plot (0.50-40 μM) to avoid the non-linearity of electrode response to H2O2 from affecting kinetic measurements.
Assay of LE. The analytical merit of the coupling of reactions 1 and 2 via methanol was evaluated by using the MP to assay LE in PBS samples. To conduct the assay under the zero-order kinetics, the high concentration of MP was selected (88 μM, >10Km).
Control Experiments with Small Esters Other Than Methyl Pyruvate. […] The data in FIG. 7 underline the uniqueness of the methyl pyruvate-based method for the quantification of LE as a biomarker of infection.

Solubility in water = format: physicochemical
[1] = Non-enzymatic hydrolysis in assay solution (steady current steps before LE addition); format: physicochemical; settings: pH 7.40 PBS assay solution, <200 s
Experimental: as §1
The slope of current segments at >200 s increased with the concentration of MP in a solution.

[2] = 1.4 nM LE, 25 mU AOx, 1-40 μM MP, Michaelis-Menten fit, RSD<10%

**Q.** For `COC(=O)C(C)=O` [MP, Methyl pyruvate], which “specificity constant kcatKm^−1” value (leukocyte esterase (LE); [2]) is on record?
**A.** 2.3e+06 M⁻¹ s⁻¹

**Q.** What about the turnover number kcat (leukocyte esterase (LE); [2]) of the same compound?
**A.** 15 s⁻¹

**Q.** What about the “recognition of ester by LE as substrate (ascending current segment after LE addition at 200 s)” value (leukocyte esterase (LE); 88 μM ester, 25 mU AO, N-CNT electrode −0.20 V, FIG. 7) of the same compound?
**A.** produced the ascending current segment

**Q.** And the “average specific activity of LE reacting with MP (slope of LE activity vs. LE concentration)” value (leukocyte esterase (LE); 88 μM MP, 25 mU AOx, linear up to 260 μg L^−1 LE)?
**A.** 12 U mg^−1

**Q.** What about the solubility in water (Solubility in water) of the same compound?
**A.** good solubility in water

**Q.** What about the non-enzymatic hydrolysis [1] of the same compound?
**A.** slow on the experimental time scale
